Patent publication US4339390A, “Preferential immunoreactivity of syn-isomer of cortisol derivative” (Abbott Laboratories, priority 1981, dated 1982)

Test system: cortisol antibodies (antisera to cortisol-3-carboxymethyloxime-BSA)
Assay: competitive radioimmunoassay, binding affinity curves on antibody-coated polystyrene beads
Set-up: species or system rabbit
Procedure: Female rabbits were immunized subcutaneously at multiple sites with 1 mg of cortisol-3-CMO-BSA conjugate, prepared according to method of example 1, in saline emulsified with complete Freund's adjuvant (Difco Laboratories, Detroit, Michigan) on weeks 1, 2, 3 and 4 with booster injections of […] of the immunogen being given at longer intervals according to the antibody titer. Blood was collected from the marginal ear vein after three months of immunization. The serum was harvested and frozen for future use.
Into appropriately labeled 12×75 mm plastic tubes containing polystyrene beads coated with cortisol antibodies generated according to this disclosure, was added 25 μl of standard serum, followed by 300 μl of radioactive assay solution containing a mixture of borate buffered saline, pH 8.8; 0.12% Triton X 100 and approximately 0.25 ng/ml of either the syn, anti or racemic mixture of ^125 I labeled tyrosine methyl ester derivative of cortisol-21-acetate-3-carboxymethyloxime. The reaction mixture was incubated with agitation at room temperature for one hour. The liquid contents of the tubes were aspirated and the radioactivity bound to the antibody coated beads was counted. The percent bound versus cortisol concentration was plotted. […] Knowing this preference, it would be advantageous in terms of sensitivity and specificity to employ only the syn isomer in assays for the determination of cortisol in biological fluids.

For `COC(=O)[C@H](Cc1ccc(O)c([125I])c1)NC(=O)CO/N=C1\C=C2CC[C@@H]3[C@H]([C@@H](O)C[C@@]4(C)[C@H]3CC[C@]4(O)C(=O)COC(C)=O)[C@@]2(C)CC1` [I^125 syn isomer], the “affinity of antibody for labeled antigen conjugate (percent bound versus cortisol concentration)” value (approx. 0.25 ng/ml tracer, room temperature, one hour, borate buffered saline pH 8.8, compared with anti isomer and racemic mixture) was “demonstrably greater affinity”, the “affinity constant calculated from slope of standard curves (FIG. 1)” value (compared with I^125 -anti-isomer and I^125 -mixture (syn and anti)) was “highest” and the “immunoavidity of antisera for the labeled isomer” value (compared with labeled anti-isomer and racemic mixture) was “significant preference in immunoavidity”. For the same molecule, the “sensitivity of the antibody for the labeled isomer (FIG. 1)” value (standard curves) was “increased sensitivity”.
